Read-outs that look alike come from different tables or passages of the source.
How the values were obtained:
[1] = system: cotton worm (Spodoptera litura); assay: Test method 1: foliar spray on cabbage seedling, cotton worm larvae; type: in vivo; conditions: 144 h, read-out: mortality of insects
Procedure: The test compounds are made to a formulation according to a similar method to that described in the Formulation Example 5, and thereto is added water containing 0.03 v/v % of Shindain (registered trademark) to prepare a diluted solution containing a prescribed concentration of the test compound.
(§1) Cabbage (Brassicae oleracea) seedling (on the developmental stage of the third to fourth true leaf) is planted in a cup, and the diluted solutions are sprayed into the seedling at a ratio of 20 mL/seedling. Thereafter, ten (10) cotton worm (Spodoptera litura) at the third instar larval stage are released. After 6 days, the number of the surviving insects is counted, and the mortality of insects is calculated by the following equation.

[2] = system: cotton worm (Spodoptera litura); assay: Test method 2: foliar spray on cabbage seedling, cotton worm larvae; type: in vivo; conditions: 144 h, read-out: mortality of insects
Procedure: (§2) Test compounds are made to a formulation according to a similar method to that described in the Formulation Example 5, and thereto is added water containing 0.03 v/v % of Shindain (registered trademark) to prepare a diluted solution containing a prescribed concentration of the test compound.
as §1

[3] = system: brown planthoppers (Nilaparvata lugens); assay: Test method 4: foliar spray on rice seedling, brown planthopper larvae; type: in vivo; conditions: 144 h, read-out: mortality of insects
Procedure: as §2
Rice (Oryza sativa) seedling (on the developmental stage of the second true leaf) is planted in a cup, and the diluted solutions are sprayed into the seedling at a ratio of 10 mL/seedling. Thereafter, twenty (20) of 3rd instar larvae of brown planthoppers (Nilaparvata lugens) are released onto the rice leaves. After 6 days, the number of the surviving insects is examined and the mortality of insects is calculated by the following equation.

[4] = system: cotton aphids (Aphis gossypii); assay: Test method 3: foliar spray on cucumber seedling infested with cotton aphids; conditions: read-out: mortality of insects
[5] = system: silverleaf whiteflies (Bemisia tabaci); assay: Test method 6: foliar spray on tomato seedling with silverleaf whitefly larvae; conditions: in Solanum lycopersicum, 168 h, read-out: mortality of insects
[6] = system: western flower thrips (Frankliniella occidentalis); assay: Test method 5: sprayed cucumber leaf, western flower thrips larvae; type: in vivo; conditions: 144 h, read-out: mortality of insects
Procedure: as §2
Cucumber (Cucumber sativus) seedling (on the developmental stage of the second true leaf) is planted in a cup, and the diluted solutions are sprayed into the seedling at a ratio of 10 mL/seedling. Thereafter, the second true leaf is cut, and the cut leaf was placed in the cup, and approximately twenty (20) of larvae of western flower thrips (Frankliniella occidentalis) larvae are released onto the leaf. After 6 days, the number of the surviving insects is examined and the mortality of insects is calculated by the following equation.

[7] = system: northern house mosquitos (Culex pipiens pipiens); assay: Test method 8: coated container contact test, northern house mosquito female adults; type: in vivo; conditions: 24 h, read-out: mortality of insects
Procedure: The test compounds are dissolved with acetone containing a surfactant, and the solution was then poured into a container of 20 mL contents, and the solution was coating uniformly in the inner face of the container such that the test compound is made 10 mg/m^2, and the surfactant is made 40 mg/m^2, and the container is dried.
Five (5) of female adult of northern house mosquitos (Culex pipiens pipiens) are placed in the contained, and the contained is put the lid. After the passing of the prescribed times, the state of the northern house mosquitos are examined, and the mortality is calculated by the following equation.

[8] = 200 ppm, spray 20 mL/seedling on cabbage, third instar larvae, after 6 days, 25° C.
[9] = 200 ppm, spray 20 mL/seedling on cabbage, third instar larvae, after 6 days, 25° C. (test method 2)
[10] = 200 ppm, spray 10 mL/seedling on cucumber, cut second true leaf, larvae, after 6 days, 25° C.
[11] = 10 mg/m^2 coated on inner face of container, female adults, after one (1) day, 25° C.
[12] = 200 ppm, spray 10 mL/seedling on rice, 3rd instar larvae, after 6 days, 25° C.

Compound | mortality at 200 ppm [1] [%] | mortality at 200 ppm [2] [%] | mortality at 200 ppm [3] [%] | mortality at 200 ppm [4] [%] | mortality at 200 ppm [5] [%] | mortality at 200 ppm [6] [%] | mortality at 10 mg/m2 [7] [%] | mortality at 200 ppm [1, 8] [%] | mortality at 200 ppm [2, 9] [%] | mortality at 200 ppm [6, 10] [%] | mortality at 10 mg/m2 [7, 11] [%] | mortality at 200 ppm [3, 12] [%]
CC1=CC(=O)[C@@H]2[C@@H](C1)[C@]1(C)C[C@@]34OC(=O)C[C@@](C)([C@H]1C(=O)[C@@H]2CO)[C@]3(C)CCC12C[C@@H](C)C[C@H](CN14)O2 [A-1] | ≥ 80 | ≥ 80 | ≥ 90 | ≥ 90 | ≥ 90 | – | – | – | – | – | – | –
C[C@@H]1CC(=O)[C@H]2CC(=O)[C@H]3[C@@](C)(C[C@@]45OC(=O)C[C@]3(C)[C@]4(C)CC[C@]34C[C@@H](C)C[C@H](CN35)O4)[C@@H]2C1 [A-18] | ≥ 80 | ≥ 80 | ≥ 90 | ≥ 90 | – | ≥ 90 | – | – | – | – | – | –
CC1CC(=O)[C@@H]2[C@@H](C1)[C@]1(C)C[C@@]34OC(=O)C[C@@](C)([C@H]1C(=O)[C@@H]2C)[C@]3(C)CC[C@]12C[C@@H](C)C[C@H](CN14)O2 (stereo partly drawn) [A-19] | ≥ 80 | ≥ 80 | ≥ 90 | ≥ 90 | – | ≥ 90 | ≥ 80 | – | – | – | – | –
CC1=CC(=O)[C@@H]2[C@@H](C1)[C@@]1(C)[C@H](C(=O)[C@@H]2C)[C@]2(C)CC(=O)O[C@@]3([C@H]1Cl)N1C[C@H]4C[C@H](C)C[C@]1(CC[C@@]23C)O4 [AA-2] | ≥ 80 | ≥ 80 | ≥ 90 | ≥ 90 | ≥ 90 | ≥ 90 | ≥ 80 | – | – | – | – | –
CC[C@H]1C(=O)[C@H]2[C@@](C)(C[C@@]34OC(=O)C[C@]2(C)[C@]3(C)CC[C@]23C[C@@H](C)C[C@H](CN24)O3)[C@@H]2CC(C)=CC(=O)[C@H]21 [AA-3] | ≥ 80 | ≥ 80 | ≥ 90 | ≥ 90 | ≥ 90 | – | ≥ 80 | – | – | – | – | –
Cc1cc(O)c2c(c1)[C@]1(C)C[C@@]34OC(=O)C[C@@](C)([C@H]1C(=O)[C@@H]2C)[C@]3(C)CC[C@@]12C[C@@H](C)C[C@H](CN14)O2 [B-1] | ≥ 80 | ≥ 80 | – | ≥ 90 | – | ≥ 90 | ≥ 80 | – | – | – | – | –
Cc1cc(O)c2c(c1)[C@]1(C)C[C@@]34OC(=O)C[C@@](C)([C@H]1C(=O)C2)[C@]3(C)CC[C@]12C[C@@H](C)C[C@H](CN14)O2 [B-2] | ≥ 80 | ≥ 80 | ≥ 90 | ≥ 90 | – | – | ≥ 80 | – | – | – | – | –
CC(=O)Oc1cc(C)cc2c1CC(=O)[C@H]1[C@@]2(C)C[C@@]23OC(=O)C[C@]1(C)[C@]2(C)CC[C@]12C[C@@H](C)C[C@H](CN13)O2 [BB-1] | – | – | – | ≥ 90 | – | – | – | ≥ 80 | ≥ 80 | ≥ 90 | ≥ 80 | –
COC(=O)C[C@@]1(C)[C@H]2C(=O)C[C@@H]3C(=O)C=C(C)C[C@H]3[C@]2(C)C=C2N3C[C@H]4C[C@H](C)C[C@]3(CC[C@]21C)O4 [E-1] | – | ≥ 80 | ≥ 90 | ≥ 90 | ≥ 90 | ≥ 90 | ≥ 80 | – | – | – | – | –
COC(=O)C[C@@]1(C)[C@H]2C(=O)CC3C(=O)CC(C)CC3[C@]2(C)C=C2N3C[C@H]4C[C@H](C)C[C@]3(CC[C@]21C)O4 (stereo partly drawn) [EE-1] | – | – | – | ≥ 90 | ≥ 90 | – | – | – | – | ≥ 90 | ≥ 80 | –
CC1CC(=O)C2CC(=O)[C@H]3[C@@](C)(CC4=[N+]5C[C@H]6C[C@H](C)C[C@]5(CC[C@@]4(C)[C@@]3(C)CC(=O)O)O6)C2C1 (stereo partly drawn) [EE-2] | ≥ 80 | ≥ 80 | ≥ 90 | ≥ 90 | ≥ 90 | ≥ 90 | ≥ 80 | – | – | – | – | –
CC1=CC(=O)[C@@H]2[C@@H](C1)[C@]1(C)C[C@H]3N4C[C@H]5C[C@H](C)C[C@]4(CC[C@@]3(C)[C@@](C)(CC(=O)O)[C@H]1C(=O)[C@@H]2C)O5 [EE-3] | – | – | – | ≥ 90 | – | – | – | ≥ 80 | – | ≥ 90 | ≥ 80 | ≥ 90
COC(=O)C[C@@]1(C)[C@H]2C(=O)[C@H](C)[C@@H]3C(=O)C=C(C)C[C@H]3[C@]2(C)C=C2N3C[C@H]4C[C@H](C)C[C@]3(CC[C@]21C)O4 [EE-4] | – | – | – | – | – | – | – | – | ≥ 80 | ≥ 90 | ≥ 80 | ≥ 90
COC(=O)C[C@@]1(C)[C@H]2C(=O)[C@H](C)[C@@H]3C(=O)C=C(C)C[C@H]3[C@]2(C)C[C@H]2N3C[C@H]4C[C@H](C)C[C@]3(CC[C@]21C)O4 [EE-5] | ≥ 80 | ≥ 80 | ≥ 90 | ≥ 90 | – | ≥ 90 | ≥ 80 | – | – | – | – | –
CC1CC(O)C2CC(=O)[C@H]3[C@@](C)(CC4N5C[C@H]6C[C@H](C)C[C@]5(CC[C@@]4(C)[C@@]3(C)CC(=O)O)O6)C2C1 (stereo partly drawn) [EE-6] | – | – | – | – | – | – | – | – | ≥ 80 | ≥ 90 | ≥ 80 | –
CC1CC(O)[C@H]2CC(=O)[C@H]3[C@@](C)(CC4N5C[C@H](O)C[C@H](C)CC5CC[C@@]4(C)[C@@]3(C)CC(=O)O)[C@@H]2C1 (stereo partly drawn) [GG-1] | – | – | ≥ 90 | – | – | – | ≥ 80 | – | – | – | – | –
COC(=O)C[C@@]1(C)[C@H]2C(=O)C[C@@H]3C(=O)CC(C)C[C@H]3[C@]2(C)CC2N3C[C@H](O)C[C@H](C)CC3CC[C@]21C (stereo partly drawn) [GG-2] | – | – | – | – | – | – | ≥ 80 | – | – | – | – | –
CC1=CC(=O)[C@@H]2[C@@H](C1)[C@]1(C)CC3N4C[C@H](O)C[C@H](C)C[C@@H]4CC[C@@]3(C)[C@@](C)(CC(=O)O)[C@H]1C(=O)[C@@H]2C (stereo partly drawn) [GG-3] | ≥ 80 | – | ≥ 90 | ≥ 90 | – | ≥ 90 | ≥ 80 | – | – | – | – | –
